# From ChEMBL document CHEMBL6078725, “Discovery of novel xanthohumol C derivatives regulating XRCC2 transcription and expression for the treatment of colorectal cancer” (Bioorg Med Chem, 2025)
# Activity calls are given as the source filed them. The rule behind the calls is not given here.
# How the values were obtained:
# HCT-116 [1] = assay: Antiproliferative activity against human HCT-116 cells incubated for 48 hrs by MTS assay; format: functional, cell-based; conditions: HCT-116, 48 h
# RKO [2] = assay: Antiproliferative activity against human RKO cells incubated for 48 hrs by MTS assay; format: functional, cell-based
# HCT-116 [3] = assay: Inhibition of colony formation in human HCT-116 cells by crystal violet staining based light microscopic analysis; format: functional, cell-based; conditions: dose 1.25-5 µM
# RKO [4] = assay: Inhibition of colony formation in human RKO cells by crystal violet staining based light microscopic analysis; format: functional, cell-based; conditions: dose 1.25-5 µM
# HCT-116 [5] = assay: Inhibition of colony formation in human HCT-116 cells assessed as reduction in colony formation at 5 uM by crystal violet staining based light microscopic analysis; format: functional
# RKO [6] = assay: Inhibition of colony formation in human RKO cells assessed as reduction in colony formation at 5 uM by crystal violet staining based light microscopic analysis; format: functional
# HCT-116 [7] = assay: Inhibition of DNA replication in human HCT-116 cells assessed as reduction in EdU positive cells incubated for 48 hrs by EdU staining based fluorescence microscopic analysis; format: functional, cell-based; conditions: dose 1.25-5 µM
# RKO [8] = assay: Inhibition of DNA replication in human RKO cells assessed as reduction in EdU positive cells incubated for 48 hrs by EdU staining based fluorescence microscopic analysis; format: functional, cell-based; conditions: dose 1.25-5 µM
# HCT-116 [9] = assay: Induction of cell cycle arrest in human HCT-116 cells at 5 uM incubated for 2 to 48 hrs by PI staining based flow cytometry analysis; format: functional; conditions: time 2-48 hrs
# HCT-116 [10] = assay: Inhibition of XRCC2 expression in human HCT-116 cells incubated for 48 hrs Western blot analysis; format: functional, cell-based; conditions: dose 1.25-5 µM
# HCT-116 [11] = assay: Inhibition of BRCA1 expression in human HCT-116 cells incubated for 48 hrs Western blot analysis; format: functional, cell-based; conditions: dose 1.25-5 µM
# HCT-116 [12] = assay: Inhibition of BRCA1 expression in human HCT-116 cells assessed as reduction in fluorescence intensity at 1.25 to 5 uM incubated for 48 hrs immunofluorescence analysis; format: functional, cell-based; conditions: dose 1.25-5 µM
# HCT-116 [13] = assay: Induction of DNA damage in human HCT-116 cells assessed as increase in 53BP1 foci positive cells at 1.25 to 5 uM incubated for 48 hrs by immunofluorescence staining based analysis; format: functional, cell-based; conditions: dose 1.25-5 µM
# [14] = Half life in male Sprague-Dawley rat at 10 mg/kg, po measured upto 48 hrs by UHPLC-MS/MS analysis; format: ADME, organism-based; conditions: in vivo
# [15] = Half life in male Sprague-Dawley rat at 2 mg/kg, iv measured upto 8 hrs by UHPLC-MS/MS analysis; format: ADME, organism-based; conditions: in vivo
# [16] = Tmax in male Sprague-Dawley rat at 10 mg/kg, po measured upto 48 hrs by UHPLC-MS/MS analysis; format: ADME, organism-based; conditions: in vivo
# [17] = Tmax in male Sprague-Dawley rat at 2 mg/kg, iv measured upto 8 hrs by UHPLC-MS/MS analysis; format: ADME, organism-based; conditions: in vivo
# [18] = Cmax in male Sprague-Dawley rat at 10 mg/kg, po measured upto 48 hrs by UHPLC-MS/MS analysis; format: ADME, organism-based; conditions: in vivo
# [19] = Cmax in male Sprague-Dawley rat at 2 mg/kg, iv measured upto 8 hrs by UHPLC-MS/MS analysis; format: ADME, organism-based; conditions: in vivo
# [20] = AUC (0 to t) in male Sprague-Dawley rat at 10 mg/kg, po measured upto 48 hrs by UHPLC-MS/MS analysis; format: ADME, organism-based; conditions: in vivo
# [21] = AUC (0 to t) in male Sprague-Dawley rat at 2 mg/kg, iv measured upto 8 hrs by UHPLC-MS/MS analysis; format: ADME, organism-based; conditions: in vivo
# [22] = AUC (0 to infinity) in male Sprague-Dawley rat at 10 mg/kg, po measured upto 48 hrs by UHPLC-MS/MS analysis; format: ADME, organism-based; conditions: in vivo
# [23] = AUC (0 to infinity) in male Sprague-Dawley rat at 2 mg/kg, iv measured upto 8 hrs by UHPLC-MS/MS analysis; format: ADME, organism-based; conditions: in vivo
# [24] = Oral bioavailability in male Sprague-Dawley rat at 10 mg/kg measured upto 48 hrs by UHPLC-MS/MS analysis; format: ADME, organism-based; conditions: in vivo
# [25] = Bioavailability in male Sprague-Dawley rat […] by UHPLC-MS/MS analysis; format: ADME, organism-based; conditions: in vivo
# [26] = Acute toxicity in BALB/c mouse assessed as change in body weight at 10 to 90 mg/kg, po measured for 7 days; format: organism-based; conditions: in vivo, 168 h, dose 10-90 mg/kg, time 7 day
# [27] = Acute toxicity in BALB/c mouse assessed as change in heart weight at 10 to 90 mg/kg, po measured for 7 days; format: organism-based; conditions: in vivo, 168 h, dose 10-90 mg/kg, time 7 day
# [28] = Acute toxicity in BALB/c mouse assessed as change in liver weight at 10 to 90 mg/kg, po measured for 7 days; format: organism-based; conditions: in vivo, 168 h, dose 10-90 mg/kg, time 7 day
# [29] = Acute toxicity in BALB/c mouse assessed as change in spleen weight at 10 to 90 mg/kg, po measured for 7 days; format: organism-based; conditions: in vivo, 168 h, dose 10-90 mg/kg, time 7 day
# [30] = Acute toxicity in BALB/c mouse assessed as change in lung weight at 10 to 90 mg/kg, po measured for 7 days; format: organism-based; conditions: in vivo, 168 h, dose 10-90 mg/kg, time 7 day
# [31] = Acute toxicity in BALB/c mouse assessed as change in kidney weight at 10 to 90 mg/kg, po measured for 7 days; format: organism-based; conditions: in vivo, 168 h, dose 10-90 mg/kg, time 7 day
# [32] = Acute toxicity in BALB/c mouse assessed as change in AST level at 10 to 90 mg/kg, po measured for 7 days; format: organism-based; conditions: in vivo, 168 h, dose 10-90 mg/kg, time 7 day
# [33] = Acute toxicity in BALB/c mouse assessed as change in ALT level at 10 to 90 mg/kg, po measured for 7 days; format: organism-based; conditions: in vivo, 168 h, dose 10-90 mg/kg, time 7 day
# [34] = Acute toxicity in BALB/c mouse assessed as change in creatine level at 10 to 90 mg/kg, po measured for 7 days; format: organism-based; conditions: in vivo, 168 h, dose 10-90 mg/kg, time 7 day
# [35] = Acute toxicity in BALB/c mouse assessed as morphological change in liver at 10 to 90 mg/kg, po measured for 7 days by H and E staining based analysis; format: organism-based; conditions: in vivo, 168 h, dose 10-90 mg/kg, time 7 day
# [36] = Acute toxicity in BALB/c mouse assessed as morphological change in kidney at 10 to 90 mg/kg, po measured for 7 days by H and E staining based analysis; format: organism-based; conditions: in vivo, 168 h, dose 10-90 mg/kg, time 7 day
# HCT-116 [37] = assay: Antitumor activity against human HCT-116 cells xenografted in BALB/c mouse assessed as inhibition of tumor growth at 10 to 40 mg/kg, ip administered for 2 weeks; format: functional, organism-based; conditions: dose 10-40 mg/kg
# [38] = Toxicity in BALB/c mouse implanted with human HCT-116 cells assessed as change in body weight at 10 to 40 mg/kg, ip administered for 2 weeks; format: organism-based; conditions: in vivo, 336 h, dose 10-40 mg/kg
# HCT-116 [39] = assay: Antitumor activity against human HCT-116 cells xenografted in BALB/c mouse assessed as inhibition of tumor proliferation at 10 to 40 mg/kg, ip administered for 2 weeks by Ki67 staining based immunohistochemical analysis; format: functional, organism-based; conditions: dose 10-40 mg/kg
# HCT-116 [40] = assay: Antitumor activity against human HCT-116 cells xenografted in BALB/c mouse assessed as increase in DNA damage by measuring gamma-H2AX level at 10 to 40 mg/kg, ip administered for 2 weeks by immunohistochemical analysis; format: functional, organism-based; conditions: dose 10-40 mg/kg
# [41] = Toxicity in BALB/c mouse implanted with human HCT-116 cells assessed as morphological changes in tumor t at 10 to 40 mg/kg, ip administered for 2 weeks by H and E staining based analysis; format: organism-based; conditions: in vivo, 336 h, dose 10-40 mg/kg
# HCT-116 [42] = assay: Antitumor activity against human HCT-116 cells xenografted in BALB/c mouse assessed as inhibition of BRCA1 expression at 10 to 40 mg/kg, ip administered for 2 weeks by Western blot analysis; format: functional, organism-based; conditions: dose 10-40 mg/kg
# HCT-116 [43] = assay: Antitumor activity against human HCT-116 cells xenografted in BALB/c mouse assessed as inhibition of XRCC2 expression at 10 to 40 mg/kg, ip administered for 2 weeks by Western blot analysis; format: functional, organism-based; conditions: dose 10-40 mg/kg
smiles,measurement,setting,value
COc1cc2c(c(O)c1C(=O)/C=C/c1ccc(Cl)cc1)C=CC(C)(C)O2,IC50,HCT-116 [1],26.1 µM
same,IC50,RKO [2],26.2 µM
COc1cc2c(c(O)c1C(=O)/C=C/c1ccccc1)C=CC(C)(C)O2,IC50,HCT-116 [1],24.9 µM
same,IC50,RKO [2],23.6 µM
COc1cc2c(c(O)c1C(=O)/C=C/c1cn(C)c3ccccc13)C=CC(C)(C)O2,IC50,HCT-116 [1],> 200 µM
same,IC50,RKO [2],> 200 µM
COc1cc2c(c(O)c1C(=O)/C=C/c1ccccc1N1CCN(C)CC1)C=CC(C)(C)O2,IC50,HCT-116 [1],5.4 µM
same,IC50,RKO [2],4.01 µM
same,inhibition,HCT-116 [3],Dose-dependent-effect
same,inhibition,RKO [4],Dose-dependent-effect
same,inhibition at 5 µM,HCT-116 [5],2%
same,inhibition at 5 µM,RKO [6],2%
same,inhibition,HCT-116 [7],Dose-dependent-effect
same,inhibition,RKO [8],Dose-dependent-effect
same,Activity,HCT-116 [9],Active
same,inhibition,HCT-116 [10],Dose-dependent-effect
same,inhibition,HCT-116 [11],Dose-dependent-effect
same,inhibition,HCT-116 [12],Active
same,Activity,HCT-116 [13],Active
same,half-life,[14],69.3 h
same,t1/2,[15],0.82 h
same,Tmax,[16],4 h
same,Tmax,[17],2.28 min
same,Cmax,[18],152 ng/mL
same,Cmax,[19],359 ng/mL
same,AUC(0-t) at 48 h,[20],1270 µg·h/mL
same,AUC(0-t) at 8 h,[21],866 µg·h/mL
same,AUC(0-inf),[22],3 µg·h/mL
same,AUC,[23],1.61 µg·h/mL
same,bioavailability,[24],37.5%
same,bioavailability,[25],37.5%
same,Activity,[26],Non-toxic
same,Activity,[27],Non-toxic
same,Activity,[28],Non-toxic
same,Activity,[29],Non-toxic
same,Activity,[30],Non-toxic
same,Activity,[31],Non-toxic
same,Activity,[32],Non-toxic
same,Activity,[33],Non-toxic
same,Activity,[34],Non-toxic
same,Activity,[35],Non-toxic
same,Activity,[36],Non-toxic
same,Activity,HCT-116 [37],Active
same,Activity,[38],Non-toxic
same,Activity,HCT-116 [39],Active
same,Activity,HCT-116 [40],Active
same,Activity,[41],Non-toxic
same,Activity,HCT-116 [42],Active
same,Activity,HCT-116 [43],Active
COc1cccc(/C=C/C(=O)c2c(OC)cc3c(c2O)C=CC(C)(C)O3)c1OC,IC50,HCT-116 [1],23.1 µM
same,IC50,RKO [2],13.9 µM
COc1ccc(/C=C/C(=O)c2c(OC)cc3c(c2O)C=CC(C)(C)O3)c(OC)c1OC,IC50,HCT-116 [1],26.3 µM
same,IC50,RKO [2],23.2 µM
COc1cc2c(c(O)c1C(=O)/C=C/c1ccc(O)c(Br)c1)C=CC(C)(C)O2,IC50,HCT-116 [1],24.6 µM
same,IC50,RKO [2],21.1 µM
COc1cccc(/C=C/C(=O)c2c(OC)cc3c(c2O)C=CC(C)(C)O3)c1,IC50,HCT-116 [1],25.1 µM
same,IC50,RKO [2],24.4 µM
COc1cc2c(c(O)c1C(=O)/C=C/c1cccc(C(C)(C)C)c1)C=CC(C)(C)O2,IC50,HCT-116 [1],74.2 µM
same,IC50,RKO [2],89.8 µM
